Assay results from patent US20260242335A1, “HETEROCYCLOALKYL BETA-HYDROXY ALKYL AMINES FOR USE IN THE TREATMENT OF HYPERGLYCAEMIA AND DISORDERS CHARACTERISED BY HYPERGLYCAEMIA” (ATROGI AB, priority 2023, published 2026).
Counter-ions that a name gives are not always drawn.

Assays:
[1] = test system: L6-myotubes; assay: Glucose uptake (3H-2-deoxyglucose) in differentiated L6-myotubes, compared to isoproterenol; assay type: cell-based; settings: compound at 10 μM vs isoproterenol at 10 μM, read-out: Biological example 1: glucose uptake activity compared to that of isoproterenol
Experimental: (§1) L6-myoblasts were grown in Dulbecco's Modified Eagle's Medium (DMEM) containing 1 g/L glucose supplemented with 10% fetal bovine serum, 2 mM L-Glutamine, 50 U/mL penicillin, […] streptomycin and 10 mM HEPES. Cells were plated at 1×10^5 cells per mL in 24-well plates. After reaching 90% confluence the cells were grown in medium containing 2% FBS for 7 days where upon cells differentiated into myotubes.
Differentiated L6-myotubes were serum-starved overnight in medium containing 0.5% fatty-acid free BSA and stimulated with an agonist, with a final concentration of 1×10^−5 M. After 1 h 40 min the cells were washed with warm glucose free medium or PBS twice and another portion of agonist was added to the glucose free medium. After 20 min the cells were exposed to 50 nM ^3H-2-deoxyglucose for another 10 min before washed in ice cold glucose free medium or PBS three times and lysed in 400 μL/well 0.2 M NaOH for 1 h at 60° C. The cell lysate was mixed with 4 mL scintillation buffer (Emulsifier Safe, Perkin Elmer) and the radioactivity was detected in a p-counter (Tri-Carb 4810TR, Perkin Elmer). The activity for each compound is compared to that of isoproterenol.

[2] = test system: L6-myotubes; assay: Measurement of intracellular cAMP levels (alpha screen cAMP kit) in differentiated cells, compared to isoproterenol; assay type: cell-based; settings: 0.25 h, compound at 10 μM vs isoproterenol at 10 μM, 15 min stimulation, read-out: Biological example 2: intracellular cAMP level activity compared to that of isoproterenol
Experimental: as §1
Differentiated cells were serum-starved overnight and stimulated with an agonist, final concentration 1×10^−5 M, for 15 min in stimulation buffer (HBSS supplemented with 1% BSA, 5 mM HEPES and 1 mM IBMX, pH 7.4). The medium was aspirated and 100 μL of 95% EtOH was added to each well of the 24-well plate and cells were kept at −20° C. overnight. The EtOH was allowed to evaporate and 500 μL of lysis buffer (1% BSA, 5 mM HEPES and 0.3% Tween-20, pH 7.4) was added to each well. The plate was kept at −80° C. for 30 min and then at −20° C. until the day of detection when the samples were thawed. Intracellular cAMP levels were detected using an alpha screen cAMP kit (6760635D from Perkin Elmer). The activity for each compound is compared to that of isoproterenol.

Structure (SMILES) | Emax at 10 µM [1] [%] | Emax at 10 µM [2] [%]
CC(C)(C[C@@H]1CCCN(S(C)(=O)=O)C1)NC[C@H](O)c1cccc(C(F)(F)F)n1 [Example 23, (S)-2-((2-Methyl-1-((S)-1-(methylsulfonyl)piperidin-3-yl)propan-2-yl)-amino)-1-(6-(trifluoromethyl)pyridin-2-yl)ethan-1-ol dihydrochloride] | 50 to 75 | < 25
CC(C)(C[C@H]1CCCN(C(=O)OC(C)(C)C)C1)NC[C@H](O)c1cncc(F)c1 [Example 40, tert-Butyl (R)-3-(2-(((R)-2-(5-fluoropyridin-3-yl)-2-hydroxyethyl)-amino)-2-methylpropyl)piperidine-1-carboxylate] | > 75 | < 25
CC(C)(C[C@H]1CCCN(S(C)(=O)=O)C1)NC[C@H](O)c1cncc(F)c1 [Example 27, (R)-1-(5-Fluoropyridin-3-yl)-2-((2-methyl-1-((R)-1-(methylsulfonyl)-piperidin-3-yl)propan-2-yl)amino)ethan-1-ol dihydrochloride] | 50 to 75 | < 25
CC(C)(C[C@@H]1CCNC(=O)C1)NC[C@H](O)c1cncc(F)c1 [Example 55, (S)-4-(2-(((R)-2-(5-Fluoropyridin-3-yl)-2-hydroxyethyl)amino)-2-methylpropyl)piperidin-2-one] | > 75 | 50 to 75
CC(C)(C[C@@H]1CCCNC1)NC[C@H](O)c1cccc(F)c1 [Example 2, (R)-1-(3-Fluorophenyl)-2-((2-methyl-1-((S)-piperidin-3-yl)propan-2-yl)amino)ethan-1-ol] | > 75 | 25 to 50
CC(=O)N1CCC[C@H](CC(C)(C)NC[C@H](O)c2cncc(F)c2)C1 [Example 26, 1-((R)-3-(2-(((R)-2-(5-Fluoropyridin-3-yl)-2-hydroxyethyl)amino)-2-methylpropyl)piperidin-1-yl)ethan-1-one dihydrochloride] | 50 to 75 | < 25
CC(C)(C[C@@H]1CCCOC1)NC[C@H](O)c1cccc(F)c1 [Example 84, (R)-1-(3-Fluorophenyl)-2-((2-methyl-1-((S)-tetrahydro-2H-pyran-3-yl)propan-2-yl)amino)ethan-1-ol] | > 75 | 50 to 75
CC(=O)N1CC[C@H](CC(C)(C)NC[C@H](O)c2cccc(F)c2)C1 [Example 58, 1-((R)-3-(2-(((R)-2-(3-Fluorophenyl)-2-hydroxyethyl)amino)-2-methylpropyl)pyrrolidin-1-yl)ethan-1-one] | > 75 | < 25
CN1CCC[C@@H](CC(C)(C)NC[C@H](O)c2cccc(F)c2)C1 [Example 10, (R)-1-(3-Fluorophenyl)-2-((2-methyl-1-((S)-1-methylpiperidin-3-yl)-propan-2-yl)amino)ethan-1-ol] | > 75 | < 25
COC(=O)N1CCC(CC(C)(C)NC[C@H](O)c2cccc(F)c2)CC1 [Example 43, Methyl (R)-4-(2-((2-(3-fluorophenyl)-2-hydroxyethyl)amino)-2-methyl-propyl)piperidine-1-carboxylate] | 50 to 75 | < 25
CC(C)(CC1CCN(C(=O)C(C)(C)C)CC1)NC[C@H](O)c1cncc(F)c1 [Example 47, (R)-1-(4-(2-((2-(5-Fluoropyridin-3-yl)-2-hydroxyethyl)amino)-2-methylpropyl)piperidin-1-yl)-2,2-dimethylpropan-1-one dihydrochloride] | 50 to 75 | < 25
CN(C)C(=O)N1CCC[C@@H](CC(C)(C)NC[C@H](O)c2cccc(F)c2)C1 [Example 8, (S)-3-(2-(((R)-2-(3-Fluorophenyl)-2-hydroxyethyl)amino)-2-methyl-propyl)-N,N-dimethylpiperidine-1-carboxamide] | > 75 | < 25
CC(C)(C[C@H]1CCCN(S(C)(=O)=O)C1)NC[C@H](O)c1cccc(F)c1 [Example 25, (R)-1-(3-Fluorophenyl)-2-((2-methyl-1-((R)-1-(methylsulfonyl)-piperidin-3-yl)propan-2-yl)amino)ethan-1-ol hydrochloride] | 25 to 50 | < 25
CC(C)(C[C@@H]1CCCN(C(=O)OC(C)(C)C)C1)NC[C@H](O)c1cccc(F)c1 [Example 1, tert-Butyl (S)-3-(2-(((R)-2-(3-fluorophenyl)-2-hydroxyethyl)amino)-2-methypropyl)piperidine-1-carboxylate acetate] | > 75 | > 75
CC(C)(C[C@@H]1CCCN(S(C)(=O)=O)C1)NC[C@H](O)c1cccc(F)c1 [Example 4, (R)-1-(3-Fluorophenyl)-2-((2-methyl-1-((S)-1-(methylsulfonyl)-piperidin-3-yl)propan-2-yl)amino)ethan-1-ol hydrochloride] | 50 to 75 | 25 to 50
CNC(=O)N1CCC[C@@H](CC(C)(C)NC[C@H](O)c2cccc(F)c2)C1 [Example 9, (S)-3-(2-(((R)-2-(3-Fluorophenyl)-2-hydroxyethyl)amino)-2-methyl-propyl)-N-methylpiperidine-1-carboxamide hydrochloride] | > 75 | 25 to 50
CC(C)(C[C@@H]1CNC(=O)C1)NC[C@H](O)c1cccc(F)c1 [Example 72, (S)-4-(2-(((R)-2-(3-Fluorophenyl)-2-hydroxyethyl)amino)-2-methyl-propyl)pyrrolidin-2-one hydrochloride] | > 75 | 50 to 75
CC(C)(CC1CCN(S(C)(=O)=O)CC1)NC[C@H](O)c1cccc(F)c1 [Example 31, (R)-1-(3-Fluorophenyl)-2-((2-methyl-1-(1-(methylsulfonyl)piperidin-4-yl)propan-2-yl)amino)ethan-1-ol hydrochloride] | 50 to 75 | < 25
CC(C)(C[C@H]1CCNC1=O)NC[C@H](O)c1cccc(F)c1 [Example 73, (R)-3-(2-(((R)-2-(3-Fluorophenyl)-2-hydroxyethyl)amino)-2-methyl-propyl)pyrrolidin-2-one hydrochloride] | > 75 | < 25
CC(=O)N1CCC(CC(C)(C)NC[C@H](O)c2cccc(F)c2)CC1 [Example 30, (R)-1-(4-(2-((2-(3-Fluorophenyl)-2-hydroxyethyl)amino)-2-methyl-propyl)piperidin-1-yl)ethan-1-one hydrochloride] | > 75 | < 25
CC(C)(C[C@@H]1CCCN(S(C)(=O)=O)C1)NC[C@H](O)c1cncc(F)c1 [Example 14, (R)-1-(5-Fluoropyridin-3-yl)-2-((2-methyl-1-((S)-1-(methylsulfonyl)-piperidin-3-yl)propan-2-yl)amino)ethan-1-ol hydrochloride] | 50 to 75 | < 25
CN(C)C(=O)N1CCC(CC(C)(C)NC[C@H](O)c2cccc(F)c2)CC1 [Example 44, (R)-4-(2-((2-(3-Fluorophenyl)-2-hydroxyethyl)amino)-2-methyl-propyl)-N,N-dimethylpiperidine-1-carboxamide hydrochloride] | > 75 | 50 to 75
CC(=O)N1CCC[C@@H](CC(C)(C)NC[C@H](O)c2cncc(F)c2)C1 [Example 13, 1-((S)-3-(2-(((R)-2-(5-Fluoropyridin-3-yl)-2-hydroxyethyl)amino)-2-methylpropyl)piperidin-1-yl)ethan-1-one dihydrochloride] | > 75 | < 25
COC1CCN(CC(C)(C)NC[C@H](O)c2cccc(F)c2)CC1 [Example 85, (R)-1-(3-Fluorophenyl)-2-((1-(4-methoxypiperidin-1-yl)-2-methyl-propan-2-yl)amino)ethan-1-ol dihydrochloride] | > 75 | < 25
CC(C)(CC1CCN(C(=O)C(F)(F)F)CC1)NC[C@H](O)c1cccc(F)c1 [Example 42, (R)-2,2,2-Trifluoro-1-(4-(2-((2-(3-fluorophenyl)-2-hydroxyethyl)-amino)-2-methylpropyl)piperidin-1-yl)ethan-1-one] | 25 to 50 | < 25
CC(C)(C[C@H]1CCN(S(C)(=O)=O)C1)NC[C@H](O)c1cncc(F)c1 [Example 63, (R)-1-(5-Fluoropyridin-3-yl)-2-((2-methyl-1-((R)-1-(methylsulfonyl)-pyrrolidin-3-yl)propan-2-yl)amino)ethan-1-ol] | > 75 | < 25
CC(C)(C[C@@H]1CCCNC1)NC[C@H](O)c1cncc(F)c1 [Example 12, (R)-1-(5-Fluoropyridin-3-yl)-2-((2-methyl-1-((S)-piperidin-3-yl)-propan-2-yl)amino)ethan-1-ol] | > 75 | < 25
